Holding throughout (assay type): biochemical
Experiment [1] concerns the target T1, human JAK1 (a.a. 837-1142) (Homo sapiens, UniProt P23458).
T1 construct: human JAK1 (a.a. 837-1142); His tag (N); made in house; host or cells: insect cells (baculovirus)
The experiment in a line: In vitro JAK kinase assay (HTRF, phosphorylation of a biotinylated peptide), JAK1. The settings on record: Table D1; read-out: JAK1 IC50. Put shortly: (§1)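 Kinase activity was measured as phosphorylation of a biotinylated peptide, with ATP at 90 μM for JAK1, 30 μM for JAK2 and 3 μM for JAK3. Reactions ran 1 hr at room temperature, were stopped with EDTA plus SA-APC and Eu-Py20, and were read by HTRF after 40 minutes of antibody binding.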
A general note: TR-FRET usually uses a lanthanide donor and a delayed reading to cut background.

Experiment [2] concerns the target T2, human JAK3 (a.a. 781-1124) (Homo sapiens, UniProt P52333).
T2 construct: JAK3 (a.a. 781-1124); His tag (N); made in house; host or cells: insect cells (baculovirus)
As to the kind of experiment: In vitro JAK kinase assay (HTRF, phosphorylation of a biotinylated peptide), JAK3. The settings on record: Table D1. Put shortly:
as §1

Experiment [3] addresses T3, human JAK2 (a.a. 828-1132) (Homo sapiens, UniProt O60674).
T3 construct: JAK2 (a.a. 828-1132); His tag (N); made in house; host or cells: insect cells (baculovirus)
The experiment in a line: In vitro JAK kinase assay (HTRF, phosphorylation of a biotinylated peptide), JAK2. Conditions: Table D1. Put shortly:
as §1

The target of experiment [4] is TYK2 (Homo sapiens, UniProt P29597). As to the kind of experiment: TYK2 kinase inhibition (Table A1). Conditions: Table D1.
Sequence of TYK2 (P29597 whole entry): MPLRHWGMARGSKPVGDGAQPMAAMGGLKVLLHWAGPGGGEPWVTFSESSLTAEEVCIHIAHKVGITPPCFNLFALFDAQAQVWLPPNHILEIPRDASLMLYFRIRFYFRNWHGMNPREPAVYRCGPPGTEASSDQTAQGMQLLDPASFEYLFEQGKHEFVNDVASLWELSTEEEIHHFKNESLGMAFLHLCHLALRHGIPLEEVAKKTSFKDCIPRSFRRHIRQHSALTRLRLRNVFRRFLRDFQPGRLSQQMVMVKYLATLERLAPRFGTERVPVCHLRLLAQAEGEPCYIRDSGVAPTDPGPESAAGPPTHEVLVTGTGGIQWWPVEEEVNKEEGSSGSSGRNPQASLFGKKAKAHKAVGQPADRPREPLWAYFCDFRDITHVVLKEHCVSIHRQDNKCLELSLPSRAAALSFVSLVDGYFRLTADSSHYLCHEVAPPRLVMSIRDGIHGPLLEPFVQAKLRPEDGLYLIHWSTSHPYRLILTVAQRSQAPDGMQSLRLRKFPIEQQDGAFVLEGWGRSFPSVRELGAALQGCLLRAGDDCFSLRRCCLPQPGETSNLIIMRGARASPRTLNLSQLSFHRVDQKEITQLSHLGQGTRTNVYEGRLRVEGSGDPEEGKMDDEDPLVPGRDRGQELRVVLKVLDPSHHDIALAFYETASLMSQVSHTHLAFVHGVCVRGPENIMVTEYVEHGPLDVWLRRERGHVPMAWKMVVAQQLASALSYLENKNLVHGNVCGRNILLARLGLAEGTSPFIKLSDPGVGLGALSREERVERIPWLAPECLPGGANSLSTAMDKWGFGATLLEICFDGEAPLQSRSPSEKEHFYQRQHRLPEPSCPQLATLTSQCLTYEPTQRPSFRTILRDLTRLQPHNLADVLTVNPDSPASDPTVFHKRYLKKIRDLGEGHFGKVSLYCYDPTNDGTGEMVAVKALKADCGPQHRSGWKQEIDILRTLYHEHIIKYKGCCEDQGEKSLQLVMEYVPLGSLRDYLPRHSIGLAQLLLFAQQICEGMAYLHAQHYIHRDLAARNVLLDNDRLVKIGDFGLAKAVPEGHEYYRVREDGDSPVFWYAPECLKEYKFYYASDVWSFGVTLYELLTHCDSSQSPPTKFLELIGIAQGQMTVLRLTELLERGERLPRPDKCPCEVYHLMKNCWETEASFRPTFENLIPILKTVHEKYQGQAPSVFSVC

T2 sequence (P52333 781-1124): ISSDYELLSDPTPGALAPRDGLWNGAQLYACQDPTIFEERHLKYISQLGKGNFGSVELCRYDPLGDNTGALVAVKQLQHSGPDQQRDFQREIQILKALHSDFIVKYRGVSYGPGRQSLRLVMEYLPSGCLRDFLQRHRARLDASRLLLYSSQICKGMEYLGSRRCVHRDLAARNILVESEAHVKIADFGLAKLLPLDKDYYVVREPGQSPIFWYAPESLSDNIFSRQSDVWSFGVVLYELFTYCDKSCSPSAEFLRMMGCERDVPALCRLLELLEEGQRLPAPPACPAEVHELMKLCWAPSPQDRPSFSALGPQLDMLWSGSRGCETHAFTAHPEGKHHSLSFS
T3 sequence (O60674 828-1132): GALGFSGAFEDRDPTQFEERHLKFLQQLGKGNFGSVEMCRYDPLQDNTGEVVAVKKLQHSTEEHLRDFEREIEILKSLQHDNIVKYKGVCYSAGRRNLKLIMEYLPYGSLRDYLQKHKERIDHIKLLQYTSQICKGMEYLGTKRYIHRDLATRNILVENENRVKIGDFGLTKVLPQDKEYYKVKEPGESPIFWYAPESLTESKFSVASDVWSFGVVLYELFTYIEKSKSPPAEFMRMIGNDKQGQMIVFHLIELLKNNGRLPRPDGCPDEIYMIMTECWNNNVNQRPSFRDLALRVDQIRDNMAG
T1 sequence (P23458 849-1154): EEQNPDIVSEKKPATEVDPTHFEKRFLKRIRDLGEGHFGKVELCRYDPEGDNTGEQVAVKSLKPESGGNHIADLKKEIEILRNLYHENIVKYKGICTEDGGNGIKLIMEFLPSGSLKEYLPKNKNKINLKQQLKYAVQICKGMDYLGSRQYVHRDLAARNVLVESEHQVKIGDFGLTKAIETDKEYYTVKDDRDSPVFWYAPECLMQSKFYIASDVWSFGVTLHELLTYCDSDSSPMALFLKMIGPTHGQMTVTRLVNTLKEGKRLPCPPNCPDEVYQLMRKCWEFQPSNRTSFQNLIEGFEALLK

Regarding `Cn1cc(C(=O)N2CC(CC(=O)Nc3ccc4cc3CCc3cncc(c3)Nc3ncc(Cl)c(n3)N4)C2)cn1` [Example D142, N-[6-Chloro-2,4,8,18,22-pentaazatetracyclo[14.3.1.1(3,7).1(9,13)]docosa-1(20),3(22),4,6,9(21),10,12,16,18-nonaen-12-yl]-2-{1-[(1-methyl-1H-pyrazol-4-yl)carbonyl]azetidin-3-yl}acetamide bis(trifluoroacetate)], the IC50 in experiment [1] is 37 nM; in experiment [2] it was greater than 1000 nM; in experiment [3], 144 nM; in experiment [4] it was 193 nM.

`Cc1cc(C(=O)N2CC(CC(=O)Nc3ccc4cc3CCc3cncc(c3)Nc3ncc(Cl)c(n3)N4)C2)no1` [Example D143, N-[6-Chloro-2,4,8,18,22-pentaazatetracyclo[14.3.1.1(3,7).1(9,13)]docosa-1(20),3(22),4,6,9(21),10,12,16,18-nonaen-12-yl]-2-{1-[(5-methylisoxazol-3-yl)carbonyl]azetidin-3-yl}acetamide bis(trifluoroacetate)]: the IC50 in experiment [1] was 26 nM; in experiment [2], greater than 1000 nM; in experiment [3] it was 132 nM; in experiment [4], 304 nM.

`O=C(CC1CN(C(=O)c2ccno2)C1)Nc1ccc2cc1CCc1cncc(c1)Nc1ncc(Cl)c(n1)N2` [Example D144, N-[6-Chloro-2,4,8,18,22-pentaazatetracyclo[14.3.1.1(3,7).1(9,13)]docosa-1(20),3(22),4,6,9(21),10,12,16,18-nonaen-12-yl]-2-[1-(isoxazol-5-ylcarbonyl)azetidin-3-yl]acetamide bis(trifluoroacetate)]: the half-maximal inhibitory concentration (IC50) in experiment [1] is 32 nM; in experiment [2], greater than 1000 nM; in experiment [3] it was 172 nM; in experiment [4], 260 nM.

With `O=C(CC1CN(C(=O)c2nccs2)C1)Nc1ccc2cc1CCc1cncc(c1)Nc1ncc(Cl)c(n1)N2` [Example D145, N-[6-Chloro-2,4,8,18,22-pentaazatetracyclo[14.3.1.1(3,7).1(9,13)]docosa-1(20),3(22),4,6,9(21),10,12,16,18-nonaen-12-yl]-2-[1-(1,3-thiazol-2-ylcarbonyl)azetidin-3-yl]acetamide bis(trifluoroacetate)], the concentration for half-maximal inhibition (IC50) in experiment [1] is 31 nM; in experiment [2] it was greater than 1000 nM; in experiment [3] it was 123 nM; in experiment [4], 775 nM.

Consider `CS(=O)(=O)N1CC(CC(=O)Nc2ccc3cc2CCc2cncc(c2)Nc2ncc(Cl)c(n2)N3)C1` [Example D146, N-[6-Chloro-2,4,8,18,22-pentaazatetracyclo[14.3.1.1(3,7).1(9,13)]docosa-1(20),3(22),4,6,9(21),10,12,16,18-nonaen-12-yl]-2-[1-(methylsulfonyl)azetidin-3-yl]acetamide bis(trifluoroacetate)], for which the concentration for half-maximal inhibition (IC50) in experiment [1] is 24 nM; in experiment [2] it was greater than 1000 nM; in experiment [3] it was 149 nM; in experiment [4] it was 270 nM.

`O=C(CC1CN(C(=O)c2nc[nH]n2)C1)Nc1ccc2cc1CCc1cncc(c1)Nc1ncc(Cl)c(n1)N2` [Example D147, N-[6-Chloro-2,4,8,18,22-pentaazatetracyclo[14.3.1.1(3,7).1(9,13)]docosa-1(20),3(22),4,6,9(21),10,12,16,18-nonaen-12-yl]-2-[1-(1H-1,2,4-triazol-3-ylcarbonyl)azetidin-3-yl]acetamide bis(trifluoroacetate)]: the 50% inhibitory concentration (IC50) in experiment [1] is 26 nM; in experiment [2], greater than 1000 nM; in experiment [3], 85 nM; in experiment [4], 401 nM.

Turning to `O=C(CC1CN(C(=O)c2c[nH]nn2)C1)Nc1ccc2cc1CCc1cncc(c1)Nc1ncc(Cl)c(n1)N2` [Example D148, N-[6-Chloro-2,4,8,18,22-pentaazatetracyclo[14.3.1.1(3,7).1(9,13)]docosa-1(20),3(22),4,6,9(21),10,12,16,18-nonaen-12-yl]-2-[1-(1H-1,2,3-triazol-4-ylcarbonyl)azetidin-3-yl]acetamide bis(trifluoroacetate)], the concentration for half-maximal inhibition (IC50) is 15 nM in experiment [1], greater than 1000 nM in experiment [2], 34 nM in experiment [3] and 414 nM in experiment [4].

In the case of `O=C(CC1CN(C(=O)c2cn[nH]c2)C1)Nc1ccc2cc1CCc1cncc(c1)Nc1ncc(Cl)c(n1)N2` [Example D149, N-[6-Chloro-2,4,8,18,22-pentaazatetracyclo[14.3.1.1(3,7).1(9,13)]docosa-1(20),3(22),4,6,9(21),10,12,16,18-nonaen-12-yl]-2-[1-(1H-pyrazol-4-ylcarbonyl)azetidin-3-yl]acetamide bis(trifluoroacetate)], the IC50 in experiment [1] is 18 nM; in experiment [2], greater than 1000 nM; in experiment [3], 94 nM; in experiment [4], 170 nM.

For `O=C(CC1CN(C(=O)c2ccn[nH]2)C1)Nc1ccc2cc1CCc1cncc(c1)Nc1ncc(Cl)c(n1)N2` [Example D150, N-[6-Chloro-2,4,8,18,22-pentaazatetracyclo[14.3.1.1(3,7).1(9,13)]docosa-1(20),3(22),4,6,9(21),10,12,16,18-nonaen-12-yl]-2-[1-(1H-pyrazol-5-ylcarbonyl)azetidin-3-yl]acetamide bis(trifluoroacetate)], the half-inhibitory concentration (IC50) was 33 nM in experiment [1], greater than 1000 nM in experiment [2], 136 nM in experiment [3] and 435 nM in experiment [4].

In the case of `O=C(CC1CN(c2nncs2)C1)Nc1ccc2cc1CCc1cncc(c1)Nc1ncc(Cl)c(n1)N2` [Example D151, N-[6-Chloro-2,4,8,18,22-pentaazatetracyclo[14.3.1.1(3,7).1(9,13)]docosa-1(20),3(22),4,6,9(21),10,12,16,18-nonaen-12-yl]-2-[1-(1,3,4-thiadiazol-2-yl)azetidin-3-yl]acetamide tris(trifluoroacetate)], the IC50 in experiment [1] is 76 nM; in experiment [2] it was greater than 200 nM; in experiment [3], greater than 200 nM; in experiment [4], greater than 200 nM.

Consider `O=C(CC1CN(c2nccs2)C1)Nc1ccc2cc1CCc1cncc(c1)Nc1ncc(Cl)c(n1)N2` [Example D152, N-[6-Chloro-2,4,8,18,22-pentaazatetracyclo[14.3.1.1(3,7).1(9,13)]docosa-1(20),3(22),4,6,9(21),10,12,16,18-nonaen-12-yl]-2-[1-(1,3-thiazol-2-yl)azetidin-3-yl]acetamide tris(trifluoroacetate)], for which the concentration for half-maximal inhibition (IC50) in experiment [1] is 21 nM; in experiment [2], greater than 400 nM; in experiment [3], 95 nM; in experiment [4], 265 nM.

Turning to `O=C(CC1CN(c2ccccn2)C1)Nc1ccc2cc1CCc1cncc(c1)Nc1ncc(Cl)c(n1)N2` [Example D153, N-[6-Chloro-2,4,8,18,22-pentaazatetracyclo[14.3.1.1(3,7).1(9,13)]docosa-1(20),3(22),4,6,9(21),10,12,16,18-nonaen-12-yl]-2-(1-pyridin-2-ylazetidin-3-yl)acetamide tris(trifluoroacetate)], the half-inhibitory concentration (IC50) was 30 nM in experiment [1], greater than 400 nM in experiment [2], 150 nM in experiment [3] and greater than 400 nM in experiment [4].

As to `O=C(CC1CCN(c2nccs2)C1)Nc1ccc2cc1CCc1cncc(c1)Nc1ncc(Cl)c(n1)N2` (stereo not shown) [Example D154, N-[6-Chloro-2,4,8,18,22-pentaazatetracyclo[14.3.1.1(3,7).1(9,13)]docosa-1(20),3(22),4,6,9(21),10,12,16,18-nonaen-12-yl]-2-[1-(1,3-thiazol-2-yl)pyrrolidin-3-yl]acetamide tris(trifluoroacetate)], the IC50 in experiment [1] was 7.8 nM; in experiment [2] it was greater than 400 nM; in experiment [3] it was 59 nM; in experiment [4], 226 nM.

`O=C(CC1CCN(c2nncs2)C1)Nc1ccc2cc1CCc1cncc(c1)Nc1ncc(Cl)c(n1)N2` (stereo not shown) [Example D155, N-[6-Chloro-2,4,8,18,22-pentaazatetracyclo[14.3.1.1(3,7).1(9,13)]docosa-1(20),3(22),4,6,9(21),10,12,16,18-nonaen-12-yl]-2-[1-(1,3,4-thiadiazol-2-yl)pyrrolidin-3-yl]acetamide tris(trifluoroacetate)]: the IC50 is 29 nM in experiment [1], greater than 400 nM in experiment [2], 120 nM in experiment [3] and greater than 400 nM in experiment [4].

As for `O=C(CC1CCN(c2ccccn2)C1)Nc1ccc2cc1CCc1cncc(c1)Nc1ncc(Cl)c(n1)N2` (stereo not shown) [Example D156, N-[6-Chloro-2,4,8,18,22-pentaazatetracyclo[14.3.1.1(3,7).1(9,13)]docosa-1(20),3(22),4,6,9(21),10,12,16,18-nonaen-12-yl]-2-(1-pyridin-2-ylpyrrolidin-3-yl)acetamide tris(trifluoroacetate)], the IC50 is 24 nM in experiment [1], greater than 400 nM in experiment [2], 29 nM in experiment [3] and 217 nM in experiment [4].

With `O=C(CC1CCN(c2ccncc2)C1)Nc1ccc2cc1CCc1cncc(c1)Nc1ncc(Cl)c(n1)N2` (stereo not shown) [Example D157, N-[6-Chloro-2,4,8,18,22-pentaazatetracyclo[14.3.1.1(3,7).1(9,13)]docosa-1(20),3(22),4,6,9(21),10,12,16,18-nonaen-12-yl]-2-(1-pyridin-4-ylpyrrolidin-3-yl)acetamide tris(trifluoroacetate)], the concentration for half-maximal inhibition (IC50) was 39 nM in experiment [1], greater than 400 nM in experiment [2], greater than 400 nM in experiment [3] and greater than 400 nM in experiment [4].

Usually IC50 stands for the concentration that inhibits the measured activity by half.
